Test results: PMC5618429, “Kempopeptin C, a Novel Marine-Derived Serine Protease Inhibitor Targeting Invasive Breast Cancer” (Marine Drugs, 2017)

Target: T1, plasmin from human plasma (Homo sapiens, UniProt P00747)
T1 construct: purchased Sigma P1867; host or cells: human plasma
Test: Plasmin inhibition assay
Format: biochemical
Conditions: mean ± SD, n = 3; 30-min preincubation; read-out: IC50 against plasmin
Procedure: The plasmin inhibition assay was carried out by incubating 5 µL of […] plasmin from human plasma (P1867, Sigma, St. Louis, MO, USA) with 1 µL of different concentrations of inhibitors (2 and 3; half log dilutions prepared in DMSO) or the solvent control in the presence of 89 µL assay buffer (0.05 M Tris-HCl, pH 8.9). After a 30-min incubation time, 5 µL of 1.7 mM substrate solution (N-p-Tosyl-D-Gly-Pro-Lys-4-nitroanilide acetate salt; prepared in assay buffer) were added to each well. The reaction was monitored by measuring the absorbance at 405 nm every 30 s for 30 min using the SpectraMax M5 plate reader (Molecular Devices).

T1 sequence (P00747 581-810 limits assumed): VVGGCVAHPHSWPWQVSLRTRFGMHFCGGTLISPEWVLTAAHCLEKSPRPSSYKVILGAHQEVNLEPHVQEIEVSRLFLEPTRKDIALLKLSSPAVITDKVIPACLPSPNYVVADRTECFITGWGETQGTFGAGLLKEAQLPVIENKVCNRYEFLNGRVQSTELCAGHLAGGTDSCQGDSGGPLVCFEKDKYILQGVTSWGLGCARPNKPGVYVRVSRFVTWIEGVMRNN
T1 sequence (P00747 98-580 partner limits assumed): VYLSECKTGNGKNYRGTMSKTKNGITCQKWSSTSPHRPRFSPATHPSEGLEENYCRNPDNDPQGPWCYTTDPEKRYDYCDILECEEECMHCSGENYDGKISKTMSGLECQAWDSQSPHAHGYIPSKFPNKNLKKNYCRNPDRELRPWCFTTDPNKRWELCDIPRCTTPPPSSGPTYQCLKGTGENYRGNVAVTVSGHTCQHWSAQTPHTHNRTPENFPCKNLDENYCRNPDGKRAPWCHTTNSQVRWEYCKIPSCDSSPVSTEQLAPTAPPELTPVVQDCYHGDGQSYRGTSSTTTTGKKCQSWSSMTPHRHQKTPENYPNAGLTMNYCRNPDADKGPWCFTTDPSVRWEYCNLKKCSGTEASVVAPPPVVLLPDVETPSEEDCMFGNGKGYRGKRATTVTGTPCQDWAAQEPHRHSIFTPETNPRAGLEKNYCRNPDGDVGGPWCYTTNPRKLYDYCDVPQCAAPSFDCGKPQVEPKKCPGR

## CCCC(=O)NC(C(=O)NC1C(=O)NC(CCCCN)C(=O)NC2CCC(O)N(C2=O)C(C(C)CC)C(=O)N(C)C(Cc2ccc(OC)c(Cl)c2)C(=O)NC(C(C)C)C(=O)OC1C)C(C)C (stereo not shown) [Kempopeptin C, kempopeptin C]
  IC50: 360 ± 90 nM
